From article PMC2774619 (Current Chemical Genomics, 2008)
Counter-ions that a name gives are not always drawn. Peptide text beside a SMILES is read from it.

How the values were obtained:
[1] = target: murine M1 muscarinic acetylcholine receptor (Rattus norvegicus, UniProt P08482); assay: cell-based; details: IC50, IP-One Assay
[2] = target: NPS receptor (Homo sapiens) (UniProt Q6W5P4); details: cited from earlier work
[3] = target: free fatty acid receptor 1 (FFAR1) (Homo sapiens, UniProt O14842)
[4] = target: neuropeptide S (NPS) receptor (Homo sapiens, UniProt Q6W5P4); details: NPSR
NPS receptor = details: read-out: Kd value of NPS receptor binding; reported previously; cited from earlier work

Sequence of murine M1 muscarinic acetylcholine receptor (P08482 whole entry): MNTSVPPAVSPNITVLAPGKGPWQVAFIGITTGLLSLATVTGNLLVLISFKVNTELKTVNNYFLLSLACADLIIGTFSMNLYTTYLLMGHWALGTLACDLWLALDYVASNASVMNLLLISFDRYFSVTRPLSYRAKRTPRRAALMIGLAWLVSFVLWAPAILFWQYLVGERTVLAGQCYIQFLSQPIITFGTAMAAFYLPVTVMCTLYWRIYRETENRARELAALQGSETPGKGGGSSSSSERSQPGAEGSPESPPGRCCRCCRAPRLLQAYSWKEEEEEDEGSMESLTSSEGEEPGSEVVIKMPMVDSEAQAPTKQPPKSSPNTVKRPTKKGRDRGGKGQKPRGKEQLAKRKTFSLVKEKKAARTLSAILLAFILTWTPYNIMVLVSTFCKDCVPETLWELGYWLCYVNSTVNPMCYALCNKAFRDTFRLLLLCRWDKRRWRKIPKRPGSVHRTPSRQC
Sequence of free fatty acid receptor 1 (FFAR1) (O14842 whole entry, species assumed): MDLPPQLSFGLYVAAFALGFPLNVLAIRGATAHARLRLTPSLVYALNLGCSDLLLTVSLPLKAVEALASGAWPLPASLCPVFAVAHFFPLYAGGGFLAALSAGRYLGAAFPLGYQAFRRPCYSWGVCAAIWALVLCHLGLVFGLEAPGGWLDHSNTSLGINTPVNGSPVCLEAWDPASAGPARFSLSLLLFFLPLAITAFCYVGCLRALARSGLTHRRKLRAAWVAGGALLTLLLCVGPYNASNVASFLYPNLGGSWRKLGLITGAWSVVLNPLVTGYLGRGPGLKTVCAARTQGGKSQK
Sequence of Neuropeptide S (P0C0P6 68-89): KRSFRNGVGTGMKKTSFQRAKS
Sequence of neuropeptide S (NPS) receptor (Q6W5P4 whole entry): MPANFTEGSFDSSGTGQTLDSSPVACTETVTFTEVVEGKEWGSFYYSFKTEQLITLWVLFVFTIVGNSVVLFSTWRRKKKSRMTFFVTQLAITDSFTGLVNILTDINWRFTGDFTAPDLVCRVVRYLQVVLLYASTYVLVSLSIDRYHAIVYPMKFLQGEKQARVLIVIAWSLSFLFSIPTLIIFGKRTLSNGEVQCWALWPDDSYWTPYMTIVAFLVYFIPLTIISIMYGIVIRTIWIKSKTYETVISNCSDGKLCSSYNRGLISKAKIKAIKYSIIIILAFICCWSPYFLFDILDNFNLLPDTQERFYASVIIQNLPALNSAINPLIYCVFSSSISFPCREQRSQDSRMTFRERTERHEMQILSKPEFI
Sequence of NPS receptor (Homo sapiens) (Q6W5P4 whole entry): as above

| Compound | IC50 [1] [nM] | also measured |
| --- | --- | --- |
| C[N+]1(C)[C@@H]2CC[C@H]1C[C@@H](OC(=O)C(CO)c1ccccc1)C2 (mixture of isomers) [Atropine methyl nitrate] | 1 |  |
| Neuropeptide S (from UniProt P0C0P6) |  | Kd [2]: 0.33 nM |
| O=C(O)CCc1ccc(NCc2cccc(Oc3ccccc3)c2)cc1 [GW9508] |  | Ratio b/a (EC50 IP-One / EC50 calcium) [3]: 1.1 |
| CC(=O)O[C@H]1C[C@@H]2CC[C@@H]3[C@H](CC[C@@]4(C)[C@H]3C[C@H]([N+]3(C)CCCCC3)[C@@H]4OC(C)=O)[C@@]2(C)C[C@@H]1[N+]1(C)CCCCC1 [Pancuronium bromide] | 12600 |  |
| CC(C)[N+](C)(CCOC(=O)C1c2ccccc2Oc2ccccc21)C(C)C [Propantheline bromide] | 1 |  |
| CSCC[C@H](NC(=O)CNC(=O)[C@@H](NC(=O)CNC(=O)[C@@H](NC(=O)CNC(=O)[C@H](CC(N)=O)NC(=O)[C@H](CCCNC(=N)N)NC(=O)[C@H](Cc1ccccc1)NC(=O)[C@@H](N)CO)C(C)C)[C@@H](C)O)C(=O)N[C@@H](CCCCN)C(=O)N[C@@H](CCCCN)C(=O)N[C@H](C(=O)N[C@@H](CO)C(=O)N[C@@H](Cc1ccccc1)C(=O)N[C@@H](CCC(N)=O)C(=O)N[C@@H](CCCNC(=N)N)C(=O)N[C@@H](C)C(=O)N[C@@H](CCCCN)C(=O)N[C@@H](CO)C(=O)O)[C@@H](C)O [NPS, neuropeptide S] (H-SFRNGVGTGMKKTSFQRAKS-OH) |  | Ratio b/a (EC50 IP-One / EC50 calcium) [4]: 1.9; Kd (NPS receptor): 0.33 nM |
| CN1[C@@H]2CC[C@H]1C[C@@H](OC(c1ccccc1)c1ccccc1N)C2 (some centres unmarked) [Aminobenztropine] | 3 |  |
| CC[N+](CC)(CC)CCOc1ccc(/C=C/c2ccccc2)cc1 [MG 624] | 398 |  |
| Cc1scc2c1N(C(=O)CN1CCN(C)CC1)c1ccccc1NC2=O [Telenzepine dihydrochloride] | 25 |  |
| C[N+]1(C)[C@@H]2CC[C@H]1C[C@@H](OC(=O)C(CO)c1ccccc1)C2 (mixture of isomers) [Atropine methyl bromide] | 3 |  |
